# Results as given in patent US20100004303A1, “TREATMENT OF ENDOCRINE DYSFUNCTION USING IRON CHELATORS” (NOVARTIS AG, priority 2006, published 2010).
# Assays:
# [1] = tested on: HJV−/− mice with iron overload; assay: Pancreas iron (ICP-OES) in HJV−/− mice with iron overload; format: in vivo
# Procedure: The spontaneous iron loading and the effect of 4-[3,5-bis(2-hydroxyphenyl)-[1,2,4]triazol-1-yl]benzoic acid (Compound I) has been examined upon the removal of iron in HJV−/− mice with iron overload.
# Methods: Inductively-Coupled Plasma Optical Emission Spectrometry (ICP-OES, measurement of elemental iron) determinations in spleen and pancreas were performed at week 8 (study start), 14, 20 and 28 in HJV−/− and wild type (wt) mice (n=6−8). Starting at week 20 three groups of HJV−/− animals received daily 0 (vehicle), 30 or 100 mg/kg of 4-[3,5-bis(2-hydroxyphenyl)-[1,2,4]triazol-1-yl]benzoic acid, control wt-mice remained untreated. Iron loading was observed up to 28 weeks, including vehicle group, and the effects of 4-[3,5-bis(2-hydroxyphenyl)-[1,2,4]triazol-1-yl]benzoic acid were assessed by comparing the 28-week groups. MRI R2* measurements were performed using a 4.7 MR imager.
# pancreatic Min6 cells = assay: Labile iron exposure of pancreatic Min6 cells: iron accumulation, cell damage, viability; format: cell-based
# From the text: (§1) Among the functions affected by metal-evoked ROS are cell permselectivity (calcein leakage), mitochondrial membrane potential (JC1 test), electron transport activity (Alamar Blue) and cell viability (calcein-propidium iodide). It can be observed that administration of deferasirox at therapeutically achievable doses ([…]): […]
# pituitary Att20 cells = assay: Labile iron exposure of pituitary Att20 cells: iron accumulation, cell damage, viability; format: cell-based
# From the text: as §1
# At20 pituitary cells = assay: Cytoprotective effect on acutely iron-overloaded At20 pituitary cells (calcein retention, Alamar-Blue, ACTH levels); format: cell-based; conditions: cell culture conditions, pharmacological chelator concentrations
# From the text: A major cause of biological damage associated with tissue iron accumulation is the cellular acquisition of circulating labile plasma iron (LPI) by endocytic mechanisms and ensuing metal-catalyzed oxidations. Endocrine cells are presumed to have endocytic abilities and/or high susceptibility to the formation of reactive oxygen intermediates (ROIs), particularly those generated in the presence of labile iron. As these properties might be implicated in the early onset of endocrine dysfunctions observed in transfusional hemosiderosis, a major goal of iron chelation therapy is to prevent iron ingress into endocrine cells and ensuing toxicity and/or removal of cell accumulated iron. Such properties of chelators have been afforded in cardiac cells (Glickstein et al, 2006, Blood In press) by treating LPI-carrying plasma with pharmacological attainable concentrations of orally active iron chelators in clinical practice. […] It has been explored here whether addition of 4-[3,5-bis(2-hydroxyphenyl)-[1,2,4]triazol-1-yl]benzoic acid could rescue acutely-iron-overloaded At20 pituitary cells from iron-toxicity, using fluorescence-plate reader and microscopy-imaging for live monitoring of cell functions and assessing toxicity in terms of: 1. cell integrity (calcein cell retention assay) 2. metabolic activities (mitochondrial Alamar-Blue assay) and 3. intracellular (ACTH) hormone levels.
# Diet-induced obese mice = assay: Oral glucose tolerance test and plasma insulin in diet-induced obese mice; format: in vivo; conditions: compared to the control animals
# Procedure: Diet-induced obese mice are used for the study at 21-23 weeks of age. On the first day of the study, animals are fasted at 7:30 a.m. Body weight measurement and basal blood sample collection are conducted at 10:30 a.m. Plasma glucose values are then determined. Animals were assigned into 4 groups (n=10/group) with the plasma glucose values and body weights matched between the 4 groups. At 12 pm, the animals are dosed orally with vehicle (water) or the Compound I at 30 mg/kg or […] respectively. At 1:00 p.m. a blood sample (at 0 min) is taken followed by an oral glucose tolerance test (OGTT) at 1 g/kg (20% glucose in water) at a dose volume of 5 ml/kg. Blood samples are collected at 30, 60 and 120 min following the glucose administration. The animals are refed after the OGTT. […]
# Blood samples are taken during the study via tail bleeding. Plasma glucose concentrations are determined using a glucose meter (Ascensia Elite, Bayer Corp., Mishawaka, Ind.). […] Plasma insulin and glucagons levels are determined by Luminex assays using Mouse Endocrine Lincoplex kit (Linco Research, Inc., St. Charles, Mo.). […] Plasma triglyceride, fatty acid and total cholesterol levels are determined using a fluorescent assay based on Amplex Red kit (Molecular Probes, Eugene, Oreg.). […] Effects on cardiovascular diseases can also be assessed by further analysis on treated animals.
# subjects with IGM = assay: Multi-center, double-blind, randomized study in subjects with IGM; format: in vivo, human; conditions: 8 weeks of treatment
# From the text: Favorable effects can be verified that confirm that Compound I can restore early phase insulin secretion and reduce post-prandial glucose levels in subjects with IGM, or can prevent or delay the onset of Type 2 diabetes and cardiovascular diseases in subjects with IGM. A multi-center, double-blind, parallel group, randomized study can be conducted in subjects with IGM in order to evaluate the incidence of confirmed hypoglycemia and the effects on prandial glucose associated with the administration of Compound I, or placebo before each main meal during 8 weeks of treatment. […]
# Corresponding dosages of Compound I are administered daily depending on the number of main meals (breakfast, lunch, snack, dinner). […] HbA1c is to be measured at baseline and after 8 weeks of treatment (fasting glucose and fructosamine). Samples of blood are to be drawn at 10, 20, […], 60, 120, and 180 minutes after drug administration (time 0) and the glucose and insulin levels to be measured. […]
# [2] = model systems and humans; Hershko 2001, Nisbet Brown 2003; cited from earlier work
# [3] = 30-100 μM, incubated prior to or post iron-loading (acutely or chronically)
# [4] = 30-100 μM, present in the iron loading medium
# [5] = 30-100 μm, incubated prior to or post iron-loading (acutely or chronically)
structure (smiles),measurement,setting,value
"O=C(O)c1ccc(-n2nc(-c3ccccc3O)nc2-c2ccccc2O)cc1 [Compound I, 4-[3,5-Bis-(2-hydroxyphenyl)-[1,2,4]-triazol-1-yl]benzoic acid]",pancreas iron ± SEM,"[1]; 30 mg/kg daily from week 20, 28-week group, n = 7",4.72 ± 0.65 mg/g dry weight
same,pancreas iron ± SEM,"[1]; 100 mg/kg daily from week 20, 28-week group, n = 6",3.54 ± 0.55 mg/g dry weight
same,"pancreas iron levels, effect in words",[1]; 100 mg/kg dose,clear trend to lower levels
same,"pancreatic iron load, effect in words",[1]; within 8 weeks of treatment,trend to improvement of pancreatic iron load
same,cell viability,pancreatic Min6 cells; [3],increases cell viability
same,labile iron raising in cells,pancreatic Min6 cells; [4],largely prevents labile iron from raising in cells
same,iron-evoked cell damage,pancreatic Min6 cells; [5],reduces iron-evoked cell damage
same,cell viability,pituitary Att20 cells; [3],increases cell viability
same,labile iron raising in cells,pituitary Att20 cells; [4],largely prevents labile iron from raising in cells
same,iron-evoked cell damage,pituitary Att20 cells; [5],reduces iron-evoked cell damage
same,At20 endocrine cell viability and functional properties compromised by iron-catalyzed formation of ROIs,At20 pituitary cells,can preserve both At20 endocrine cell viability and functional properties
same,plasma insulin levels,Diet-induced obese mice,can show a lowering in plasma insulin levels
same,"2 hour prandial glucose levels, HBA1c and fructosamine levels",subjects with IGM,can be reduced
same,early phase insulin secretion,subjects with IGM,can be restored
same,selective removal of iron,[2],effective in the selective removal of iron
